Measured values taken from US20250009746A1, “COMBINATION THERAPY FOR TREATING ABNORMAL CELL GROWTH” (Verastem, Inc., priority 2021, published 2025).
Entries after “also recorded” stand apart in the source; their conditions may differ.

What was measured:
Type in all cases: cell-based
[1] = test system: BRAF V600E human colorectal carcinoma (CRC) cell lines; assay: 3D proliferation assay (CellTiter-Glo) with synergy analysis, BRAF V600E CRC panel
Protocol: (§1) As examples, BRAF V600E human melanoma, BRAF V600E human colorectal carcinoma (CRC), and NRAS mutant human melanoma cell lines were grown in 3D conditions. Briefly, 96-well plates were coated with 50 μL of Matrigel (100%) and incubated at 37° C. and 5% CO2 for 30 min in order for the Matrigel to solidify. Cells were seeded in 100 μL of 2% Matrigel containing medium. After an overnight incubation (17-22 hours), cells were treated with VS-6766+/−BRAF V600 inhibitor (e.g., vemurafenib, dabrafenib, encorafenib), VS-6766+/−pan-RAF inhibitor (e.g., belvarafenib, naporafenib, lifirafenib, tovorafenib), or MEK inhibitor (e.g., cobimetinib, trametinib, binimetinib)+/−BRAF (e.g., vemurafenib, dabrafenib, encorafenib) inhibitor for 7 days. VS-6766 and MEK inhibitors were used at 1:5 dilutions starting at 5 μM. BRAF V600 inhibitors and pan-RAF inhibitors were used at 1:3 dilutions starting at 5 μM. Cell viability was measured using the cell viability CellTiter-Glo assay.
(§2) Raw data and metadata files were processed with a custom R-script for single agent and combination activity. Bliss, Loewe, Highest Single Agent (HSA) and ZIP synergy analysis were performed to generate a composite synergy score. Summary graphics and reports were saved for visualization and further analysis.

[2] = test system: BRAF V600E human melanoma cell lines; assay: 3D proliferation assay (CellTiter-Glo) with synergy analysis, BRAF V600E melanoma panel
Protocol: as §1, §2

[3] = test system: NRAS mutant human melanoma cell lines; assay: 3D proliferation assay (CellTiter-Glo) with synergy analysis, NRAS mutant melanoma panel; settings: VS-6766 + pan-RAF inhibitor (e.g., belvarafenib, naporafenib, lifirafenib, tovorafenib); 7 days; 3 NRAS mutant melanoma cell lines; Bliss, Loewe, HSA, ZIP (FIGS. 7, 8)
Protocol: as §1, §2

SMILES: CNS(=O)(=O)Nc1nccc(Cc2c(C)c3ccc(Cc4ncccn4)cc3oc2=O)c1F [VS-6766]
- synergy of VS-6766+BRAFi compared with synergy of MEKi+BRAFi ([1]; BRAF V600E colorectal carcinoma cell lines, composite synergy score (FIG. 4)): better
- synergy of VS-6766+vemurafenib compared with synergy of cobimetinib+vemurafenib ([1]; BRAF V600E colorectal carcinoma cell lines, dose-response matrices, each agent starting at 5 μM, Bliss synergy shown (FIG. 5)): better
- synergy of VS-6766+dabrafenib compared with synergy of trametinib+dabrafenib ([1]; BRAF V600E colorectal carcinoma cell lines, dose-response matrices, each agent starting at 5 μM, Bliss synergy shown (FIG. 6)): better
- synergy with BRAF V600 inhibitors in reducing cell viability ([1]; VS-6766 + BRAF V600 inhibitor (e.g., vemurafenib, dabrafenib, encorafenib), 7 days, 3 BRAF V600E CRC cell lines, Bliss, Loewe, HSA, ZIP composite synergy score): synergistic
- synergy of VS-6766+BRAFi compared with synergy of MEKi+BRAFi ([2]; BRAF V600E melanoma cell lines, composite synergy score (FIG. 1)): better
- synergy of VS-6766+vemurafenib compared with synergy of cobimetinib+vemurafenib ([2]; BRAF V600E melanoma cell lines, dose-response matrices, each agent starting at 5 μM, Bliss synergy shown (FIG. 2)): better
- synergy of VS-6766+dabrafenib compared with synergy of trametinib+dabrafenib ([2]; BRAF V600E melanoma cell lines, dose-response matrices, each agent starting at 5 μM, Bliss synergy shown (FIG. 3)): better
- synergy with BRAF V600 inhibitors in reducing cell viability ([2]; VS-6766 + BRAF V600 inhibitor (e.g., vemurafenib, dabrafenib, encorafenib), 7 days, 5 BRAF V600E melanoma cell lines, Bliss, Loewe, HSA, ZIP composite synergy score): synergistic
- synergy with pan-RAF inhibitors in reducing cell viability [3]: strong synergy; also recorded: synergistic
